≈ marks a conversion by molar mass, not a printed value.
Experiments:
[1] = Toxicity in rat bearing M1 cells assessed as mortality at 40% LD50 per day; type: organism-based; conditions: m1, 40 % LD50 per day, read-out: Activity
[2] = Antitumor activity against mouse EAC cells xenografted in rat; type: functional, Ehrlich
CCRF S-180 [3] = experiment: Antitumor activity against mouse S180 cells xenografted in rat; type: functional
Mus musculus = experiment: Toxicity in ip dosed ddY mouse bearing mouse S180 cells; type: organism-based, CCRF S-180; conditions: in vivo
CCRF S-180 [4] = experiment: Antitumor activity against mouse S180 cells implanted in ip dosed ddY mouse assessed as tumor volume after 7 days; type: functional
[5] = Inhibition of sunflower S-adenosyl-L-methionine-C-24 methyltransferase; set-up: species or system Helianthus annuus
L5178Y = experiment: Cytotoxicity against mouse L5178Y cells; type: functional, cell-based
HCT-116 = experiment: Cytotoxicity against human HCT116 cells; type: functional, cell-based
[6] = Inhibition of trypsin
[7] = molecular target: Procathepsin L (Homo sapiens) (UniProt P07711); experiment: Inhibition of cathepsin L
Sequence of Procathepsin L (Homo sapiens) (P07711 114-333 limits assumed): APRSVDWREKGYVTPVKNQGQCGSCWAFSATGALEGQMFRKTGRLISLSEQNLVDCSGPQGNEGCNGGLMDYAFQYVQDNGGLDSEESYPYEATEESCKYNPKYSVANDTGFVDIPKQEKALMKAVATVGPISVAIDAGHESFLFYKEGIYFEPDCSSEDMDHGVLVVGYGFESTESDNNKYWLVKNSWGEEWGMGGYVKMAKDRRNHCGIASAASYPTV

Cathepsin B = Cathepsin B (Homo sapiens, UniProt P07858); experiment: Inhibition of cathepsin B
[8] = Inhibition of Pepsin
Proteus vulgaris = experiment: Antimicrobial activity against Proteus vulgaris OX19; type: functional
Bacillus subtilis [9] = experiment: Antimicrobial activity against Bacillus subtilis NRRL B-558; type: functional
Bacillus anthracis = experiment: Antimicrobial activity against Bacillus anthracis; type: functional
Providencia rettgeri [10] = experiment: Antimicrobial activity against Providencia rettgeri GN466; type: functional
[11] = tested on: Mycolicibacterium smegmatis; experiment: Antimicrobial activity against rifamycin-resistant Mycobacterium smegmatis ATCC 607; type: functional
Providencia rettgeri [12] = experiment: Antimicrobial activity against Providencia rettgeri GN311; type: functional
[13] = tested on: Salmonella enterica subsp. enterica; experiment: Antimicrobial activity against Salmonella enteritidis 1891; type: functional, Salmonella enterica subsp. enterica serovar Enteritidis
Escherichia coli [14] = experiment: Antimicrobial activity against Escherichia coli BEM11; type: functional
Staphylococcus aureus [15] = experiment: Antimicrobial activity against Staphylococcus aureus FDA209P; type: functional
Bacillus subtilis [16] = experiment: Antimicrobial activity against Bacillus subtilis PCI 219; type: functional
[17] = tested on: Mycolicibacterium smegmatis; experiment: Antimicrobial activity against Mycobacterium smegmatis ATCC 607; type: functional
Bacillus cereus = experiment: Antimicrobial activity against Bacillus cereus ATCC 10702; type: functional
Pseudomonas aeruginosa [18] = experiment: Antimicrobial activity against Pseudomonas aeruginosa A3; type: functional
Shigella dysenteriae = experiment: Antimicrobial activity against Shigella dysenteriae JS1 1910; type: functional
Staphylococcus aureus [19] = experiment: Antimicrobial activity against Staphylococcus aureus MS9610; type: functional
Mycolicibacterium vaccae = experiment: Antimicrobial activity against Mycobacterium vaccae ATCC 15483; type: functional
Staphylococcus aureus [20] = experiment: Antimicrobial activity against methicillin-resistant Staphylococcus aureus isolate 5; type: functional
Escherichia coli [21] = experiment: Antimicrobial activity against Escherichia coli K-12 MLI629; type: functional
Staphylococcus aureus [22] = experiment: Antimicrobial activity against methicillin-resistant Staphylococcus aureus isolate 17; type: functional
Micrococcus luteus [23] = experiment: Antimicrobial activity against Micrococcus luteus PCI 1001; type: functional
Klebsiella pneumoniae = experiment: Antimicrobial activity against Klebsiella pneumoniae PCI602; type: functional
[24] = tested on: Salmonella enterica subsp. enterica; experiment: Antimicrobial activity against Salmonella typhi T-63; type: functional, Salmonella enterica subsp. enterica serovar Typhi
Escherichia coli [25] = experiment: Antimicrobial activity against Escherichia coli BE1126; type: functional
Micrococcus luteus [26] = experiment: Antimicrobial activity against Micrococcus luteus FDA16; type: functional
Shigella flexneri = experiment: Antimicrobial activity against Shigella flexneri 4bJS11811; type: functional
Escherichia coli [27] = experiment: Antimicrobial activity against Escherichia coli K-12; type: functional
Micrococcus luteus [28] = experiment: Antimicrobial activity against Micrococcus luteus IFO 3333; type: functional
Staphylococcus aureus [29] = experiment: Antimicrobial activity against Staphylococcus aureus Smith; type: functional
Corynebacterium bovis = experiment: Antimicrobial activity against Corynebacterium bovis 1810; type: functional
Escherichia coli [30] = experiment: Antimicrobial activity against Escherichia coli NIHJ; type: functional
Escherichia coli [31] = experiment: Antimicrobial activity against Escherichia coli BE1186; type: functional
Proteus mirabilis = experiment: Antimicrobial activity against Proteus mirabilis IFM OM-9; type: functional
[32] = tested on: Salmonella enterica subsp. enterica; experiment: Antimicrobial activity against Salmonella typhi JS11746; type: functional, Salmonella enterica subsp. enterica serovar Typhi
Pseudomonas aeruginosa [33] = experiment: Antimicrobial activity against Pseudomonas aeruginosa GN315; type: functional

SMILES: CC1SCCN1P(=O)(N1CC1)N1CC1 (stereo not given) [MARCOPHAN]
- mortality [1]: 25%

SMILES: CC1(C)CC(CCC(=O)ONP(=O)(N2CC2(C)C)N2CC2(C)C)CC(C)(C)N1O (stereo not given)
- Activity [2]: 90%
- Activity (CCRF S-180 [3]): 93%

SMILES: C=C1C2=C(C(=O)C(C)=C(OC)C2=O)N2C[C@H]3[C@H](N3C)[C@]12OC (stereo not given in full) [MITOMYCIN G]
- LD50 (Mus musculus): 130 µg/mL
- ED50 (CCRF S-180 [4]): 100 µg/mL (≈ 331 µM)

SMILES: C[C@H](CCC1NC1(C)C)[C@H]1CC[C@@]2(C)C3=C(CC[C@]12C)[C@@]1(C)CC[C@H](O)C(C)(C)[C@@H]1CC3 (mixture of isomers)
- Ki [5]: 0.003 µM

SMILES: Nc1nc(=O)c2c(CNC(=O)N3CC3)c[nH]c2[nH]1
- IC50 (L5178Y): 9 µg/mL (≈ 36.3 µM)

SMILES: CC(=O)O[C@H]1C(=O)[C@@]2(C)C([C@H](OC(=O)c3ccccc3)[C@]3(O)C[C@H](OC(=O)[C@@H](O)[C@H](NC(=O)c4ccccc4)c4ccccc4)C(C)=C1C3(C)C)[C@]1(OC(=O)N3CC3)CO[C@@H]1C[C@@H]2O (stereo not given in full)
- IC50 (HCT-116): 0.0156 µM

SMILES: CC[C@H](NC(=O)C[C@H](O)[C@H](CC(C)C)NC(=O)[C@H](CC(C)C)NC(=O)[C@@H]1N[C@H]1C(=O)O)C(=O)N[C@H](/C=C/C(=O)O)CCCN=C(N)N [MIRAZIRIDINE A]
- INH [6]: 6 ×10⁻⁵ M
- INH [7]: 1 ×10⁶ /M/s
- IC50 (Cathepsin B): 2.09 µM
- INH (Cathepsin B): 1.5 ×10⁴ /M/s
- INH [8]: 1.4 ×10⁻⁸ M

SMILES: C=C1C2=C(C(=O)C(C)=C(N)C2=O)N2C[C@H]3[C@H](N3C)[C@]12O (stereo not given in full) [MITOMYCIN Z]
- LD50 (Mus musculus): 210 µg/mL
- ED50 (CCRF S-180 [4]): 82 µg/mL (≈ 300 µM)

SMILES: COC(=O)[C@H]1N=C1/C=C/CCCCCCCCCC=C(Cl)Cl
- IC50 (HCT-116): 24.8 µM

SMILES: COc1c(O)cc2c(OC)c3c(c(O)c2c1O)C(=O)CC1CC(O)(C2CN2C)CC(=O)C31O (stereo not given) [AZICEMICIN A]
- MIC (Proteus vulgaris): > 100 µg/mL
- MIC (Bacillus subtilis [9]): > 100 µg/mL
- MIC (Bacillus anthracis): 100 µg/mL (≈ 218 µM)
- MIC (Providencia rettgeri [10]): > 100 µg/mL
- MIC [11]: 50 µg/mL (≈ 109 µM)
- MIC (Providencia rettgeri [12]): > 100 µg/mL
- MIC [13]: 100 µg/mL (≈ 218 µM)
- MIC (Escherichia coli [14]): 100 µg/mL (≈ 218 µM)
- MIC (Staphylococcus aureus [15]): > 100 µg/mL
- MIC (Bacillus subtilis [16]): > 100 µg/mL
- MIC [17]: 50 µg/mL (≈ 109 µM)
- MIC (Bacillus cereus): > 100 µg/mL
- MIC (Pseudomonas aeruginosa [18]): > 50 µg/mL
- MIC (Shigella dysenteriae): 100 µg/mL (≈ 218 µM)
- MIC (Staphylococcus aureus [19]): > 100 µg/mL
- MIC (Mycolicibacterium vaccae): 50 µg/mL (≈ 109 µM)
- MIC (Staphylococcus aureus [20]): > 100 µg/mL
- MIC (Escherichia coli [21]): > 100 µg/mL
- MIC (Staphylococcus aureus [22]): > 100 µg/mL
- MIC (Micrococcus luteus [23]): 12.5 µg/mL (≈ 27.2 µM)
- MIC (Klebsiella pneumoniae): 100 µg/mL (≈ 218 µM)
- MIC [24]: 100 µg/mL (≈ 218 µM)
- MIC (Escherichia coli [25]): 100 µg/mL (≈ 218 µM)
- MIC (Micrococcus luteus [26]): 50 µg/mL (≈ 109 µM)
- MIC (Shigella flexneri): 50 µg/mL (≈ 109 µM)
- MIC (Escherichia coli [27]): > 100 µg/mL
- MIC (Micrococcus luteus [28]): 12.5 µg/mL (≈ 27.2 µM)
- MIC (Staphylococcus aureus [29]): > 100 µg/mL
- MIC (Corynebacterium bovis): 25 µg/mL (≈ 54.4 µM)
- MIC (Escherichia coli [30]): 50 µg/mL (≈ 109 µM)
- MIC (Escherichia coli [31]): 100 µg/mL (≈ 218 µM)
- MIC (Proteus mirabilis): > 100 µg/mL
- MIC [32]: 100 µg/mL (≈ 218 µM)
- MIC (Pseudomonas aeruginosa [33]): > 100 µg/mL

Source: ChEMBL document CHEMBL1154010, “Aziridine alkaloids as potential therapeutic agents” (Eur J Med Chem, 2009)
